Measured values: patent US20050282743A1, “Molecular interactions in cells” (Arbor Vita Corporation, priority 2001, published 2005)
Ends that are not written are not given here. Peptide text beside a SMILES is read from it. * marks the point of attachment. Biotin = O=C1N[C@H]2[C@H](CS[C@H]2CCCCC(=O)*)N1

Legend:
Assay in all cases: G' assay (10 uM PL peptide), results of TABLE 7 and TABLE 12
Assay type in all cases: binding
[1] = target: T1, PDZ protein (GST-PDZ fusion) (Homo sapiens, UniProt Q92796); settings: PDZ NeDLG
T1 construct: made in house; host or cells: E. coli (DH5alpha, BL21 or JM109)
T1 sequence (Q92796 1-817): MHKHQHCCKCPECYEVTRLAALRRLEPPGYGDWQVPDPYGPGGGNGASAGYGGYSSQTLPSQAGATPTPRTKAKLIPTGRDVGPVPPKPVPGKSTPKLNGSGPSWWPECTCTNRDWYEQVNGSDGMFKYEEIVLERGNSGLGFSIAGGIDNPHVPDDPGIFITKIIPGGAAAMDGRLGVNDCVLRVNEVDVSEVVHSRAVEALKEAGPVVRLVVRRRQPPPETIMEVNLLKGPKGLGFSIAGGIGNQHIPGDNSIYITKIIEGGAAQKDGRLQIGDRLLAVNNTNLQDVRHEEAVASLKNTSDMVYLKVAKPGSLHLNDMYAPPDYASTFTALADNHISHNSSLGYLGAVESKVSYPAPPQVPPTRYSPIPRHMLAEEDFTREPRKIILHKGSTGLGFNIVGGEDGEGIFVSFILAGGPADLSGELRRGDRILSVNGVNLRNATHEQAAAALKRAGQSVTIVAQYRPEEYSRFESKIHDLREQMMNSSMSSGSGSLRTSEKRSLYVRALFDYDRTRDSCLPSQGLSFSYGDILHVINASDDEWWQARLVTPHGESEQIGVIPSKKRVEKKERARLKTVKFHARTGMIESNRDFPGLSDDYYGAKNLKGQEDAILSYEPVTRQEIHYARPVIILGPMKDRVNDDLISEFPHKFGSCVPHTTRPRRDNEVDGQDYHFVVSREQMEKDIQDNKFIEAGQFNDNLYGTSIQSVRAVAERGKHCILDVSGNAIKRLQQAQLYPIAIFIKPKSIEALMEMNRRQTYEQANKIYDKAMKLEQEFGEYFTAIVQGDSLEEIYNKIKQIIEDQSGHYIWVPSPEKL
In short: (§1)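 Biotin-PL peptide (N-term label), 10 uM vs GST-PDZ; protein 5 ug/ml by default. A450 nm binned: 1 = 0-1, 2 = 1-2, 3 = 2-3, 4 = 3-4, 5 = >4 on >2 repeats, 0 = no binding.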

[2] = target: T2, PDZ protein (GST-PDZ fusion) (Homo sapiens, UniProt Q12923)
T2 construct: made in house; host or cells: E. coli (DH5alpha, BL21 or JM109)
In short: as §1

[3] = target: T3, PDZ protein (GST-PDZ fusion) (Homo sapiens, UniProt Q86UL8)
T3 construct: made in house; host or cells: E. coli (DH5alpha, BL21 or JM109)
In short: as §1

[4] = target: T4, PDZ protein (GST-PDZ fusion) (Homo sapiens, UniProt O75970)
T4 construct: made in house; host or cells: E. coli (DH5alpha, BL21 or JM109)
In short: as §1

[5] = PDZ atrophin-1 interacting Protein, PDZ Domain 1
[6] = PDZ Atrophin-1 Inter. Prot., PDZ Domain 5

T3 sequence (Q86UL8 whole entry, the tested form may be a part): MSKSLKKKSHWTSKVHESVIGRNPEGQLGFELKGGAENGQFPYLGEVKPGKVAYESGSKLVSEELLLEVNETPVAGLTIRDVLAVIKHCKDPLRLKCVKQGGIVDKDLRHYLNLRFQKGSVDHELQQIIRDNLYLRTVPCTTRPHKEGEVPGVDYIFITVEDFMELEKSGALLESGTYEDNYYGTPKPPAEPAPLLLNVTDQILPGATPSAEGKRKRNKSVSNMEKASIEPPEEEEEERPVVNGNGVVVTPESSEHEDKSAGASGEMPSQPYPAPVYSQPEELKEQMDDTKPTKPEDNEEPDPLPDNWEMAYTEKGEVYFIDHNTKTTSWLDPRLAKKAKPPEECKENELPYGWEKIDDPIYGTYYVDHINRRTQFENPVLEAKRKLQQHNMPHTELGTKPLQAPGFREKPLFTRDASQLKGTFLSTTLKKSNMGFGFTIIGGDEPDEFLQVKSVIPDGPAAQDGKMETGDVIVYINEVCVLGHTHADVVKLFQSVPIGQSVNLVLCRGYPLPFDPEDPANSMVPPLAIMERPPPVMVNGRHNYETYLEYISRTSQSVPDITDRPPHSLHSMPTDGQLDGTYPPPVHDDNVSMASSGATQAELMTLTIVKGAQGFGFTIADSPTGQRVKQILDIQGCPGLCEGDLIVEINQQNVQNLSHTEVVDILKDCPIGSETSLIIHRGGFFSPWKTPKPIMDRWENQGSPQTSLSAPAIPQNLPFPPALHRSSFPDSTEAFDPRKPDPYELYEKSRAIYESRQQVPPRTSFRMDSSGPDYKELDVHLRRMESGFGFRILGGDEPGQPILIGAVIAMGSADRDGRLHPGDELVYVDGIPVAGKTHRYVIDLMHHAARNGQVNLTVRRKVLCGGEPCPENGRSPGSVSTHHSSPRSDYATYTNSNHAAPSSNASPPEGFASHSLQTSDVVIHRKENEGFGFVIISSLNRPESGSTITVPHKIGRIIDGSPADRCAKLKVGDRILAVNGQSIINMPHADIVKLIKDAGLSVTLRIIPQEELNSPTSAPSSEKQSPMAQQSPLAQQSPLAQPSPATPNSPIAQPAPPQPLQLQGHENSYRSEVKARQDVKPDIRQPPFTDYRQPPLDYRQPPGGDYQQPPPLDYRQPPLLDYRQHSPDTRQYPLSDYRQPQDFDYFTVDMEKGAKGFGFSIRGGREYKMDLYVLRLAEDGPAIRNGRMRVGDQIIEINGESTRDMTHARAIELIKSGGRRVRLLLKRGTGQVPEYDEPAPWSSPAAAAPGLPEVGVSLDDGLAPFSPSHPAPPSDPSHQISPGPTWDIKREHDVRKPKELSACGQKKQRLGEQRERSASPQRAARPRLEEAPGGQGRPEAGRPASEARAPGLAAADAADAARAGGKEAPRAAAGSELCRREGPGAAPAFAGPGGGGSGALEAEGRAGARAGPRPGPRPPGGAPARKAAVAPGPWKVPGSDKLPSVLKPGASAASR
T2 sequence (Q12923 whole entry, the tested form may be a part): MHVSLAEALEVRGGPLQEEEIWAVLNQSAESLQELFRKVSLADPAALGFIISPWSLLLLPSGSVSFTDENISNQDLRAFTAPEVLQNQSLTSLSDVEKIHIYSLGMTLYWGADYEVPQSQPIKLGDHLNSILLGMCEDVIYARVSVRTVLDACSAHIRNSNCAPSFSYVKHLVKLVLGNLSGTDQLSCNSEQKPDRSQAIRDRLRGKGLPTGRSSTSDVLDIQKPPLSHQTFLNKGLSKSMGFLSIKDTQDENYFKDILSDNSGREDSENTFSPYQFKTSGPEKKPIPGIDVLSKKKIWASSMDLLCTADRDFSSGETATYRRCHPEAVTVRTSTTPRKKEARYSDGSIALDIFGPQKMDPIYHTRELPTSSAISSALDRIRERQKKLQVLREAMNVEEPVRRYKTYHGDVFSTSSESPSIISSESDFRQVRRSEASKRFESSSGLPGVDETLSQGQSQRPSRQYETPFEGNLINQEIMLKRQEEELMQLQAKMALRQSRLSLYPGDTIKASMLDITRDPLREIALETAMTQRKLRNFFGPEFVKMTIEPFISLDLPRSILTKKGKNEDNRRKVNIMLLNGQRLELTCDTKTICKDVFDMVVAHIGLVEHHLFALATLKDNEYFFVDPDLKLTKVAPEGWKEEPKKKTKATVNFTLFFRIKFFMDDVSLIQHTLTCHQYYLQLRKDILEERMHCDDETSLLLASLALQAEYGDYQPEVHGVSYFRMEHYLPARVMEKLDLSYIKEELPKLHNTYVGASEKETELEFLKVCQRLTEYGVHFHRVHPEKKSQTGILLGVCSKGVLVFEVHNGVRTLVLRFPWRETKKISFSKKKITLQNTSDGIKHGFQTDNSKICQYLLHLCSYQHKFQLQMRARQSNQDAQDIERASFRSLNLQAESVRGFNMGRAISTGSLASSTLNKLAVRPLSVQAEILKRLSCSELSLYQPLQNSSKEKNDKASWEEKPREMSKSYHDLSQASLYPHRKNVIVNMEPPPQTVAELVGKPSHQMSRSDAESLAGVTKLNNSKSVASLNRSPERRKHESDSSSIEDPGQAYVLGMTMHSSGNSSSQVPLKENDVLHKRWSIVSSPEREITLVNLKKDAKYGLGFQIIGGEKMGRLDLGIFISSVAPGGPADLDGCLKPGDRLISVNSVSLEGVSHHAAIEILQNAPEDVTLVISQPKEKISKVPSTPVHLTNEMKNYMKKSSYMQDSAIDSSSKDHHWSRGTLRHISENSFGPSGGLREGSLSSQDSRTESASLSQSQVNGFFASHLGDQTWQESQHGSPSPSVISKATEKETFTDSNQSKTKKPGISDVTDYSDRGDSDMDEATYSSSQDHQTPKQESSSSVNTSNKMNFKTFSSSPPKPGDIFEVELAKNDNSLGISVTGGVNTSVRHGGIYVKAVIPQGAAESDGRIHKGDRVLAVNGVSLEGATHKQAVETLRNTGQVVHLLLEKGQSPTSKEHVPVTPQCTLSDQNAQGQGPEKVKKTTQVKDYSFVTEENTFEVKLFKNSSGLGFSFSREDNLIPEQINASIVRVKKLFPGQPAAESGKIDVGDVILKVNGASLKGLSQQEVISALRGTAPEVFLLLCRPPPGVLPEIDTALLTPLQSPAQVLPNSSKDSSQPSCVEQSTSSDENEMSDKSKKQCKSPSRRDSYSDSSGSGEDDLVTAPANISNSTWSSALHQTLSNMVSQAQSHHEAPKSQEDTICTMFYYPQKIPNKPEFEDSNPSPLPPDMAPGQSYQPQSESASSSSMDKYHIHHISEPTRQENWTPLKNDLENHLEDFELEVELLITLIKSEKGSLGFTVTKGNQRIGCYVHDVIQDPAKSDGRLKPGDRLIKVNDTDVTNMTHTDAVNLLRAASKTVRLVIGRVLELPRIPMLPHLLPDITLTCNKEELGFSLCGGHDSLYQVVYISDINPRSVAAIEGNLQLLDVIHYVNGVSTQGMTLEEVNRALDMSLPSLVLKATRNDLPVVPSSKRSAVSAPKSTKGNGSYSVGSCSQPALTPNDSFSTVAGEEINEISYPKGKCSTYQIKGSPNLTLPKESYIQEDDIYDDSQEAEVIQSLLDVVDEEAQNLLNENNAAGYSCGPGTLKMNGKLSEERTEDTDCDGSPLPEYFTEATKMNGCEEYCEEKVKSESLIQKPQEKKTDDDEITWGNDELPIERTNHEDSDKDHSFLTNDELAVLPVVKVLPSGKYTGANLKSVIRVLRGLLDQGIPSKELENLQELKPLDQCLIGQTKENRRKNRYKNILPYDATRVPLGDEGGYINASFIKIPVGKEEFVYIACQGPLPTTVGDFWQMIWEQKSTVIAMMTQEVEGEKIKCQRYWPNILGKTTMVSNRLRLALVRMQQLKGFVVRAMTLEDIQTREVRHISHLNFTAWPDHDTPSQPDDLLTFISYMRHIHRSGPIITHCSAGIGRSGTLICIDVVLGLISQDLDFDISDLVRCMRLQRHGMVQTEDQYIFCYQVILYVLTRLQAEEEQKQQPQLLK

Molecule: RNIEEVYVGGKQVVPFSSSV (Biotin-RNIEEVYVGGKQVVPFSSSV) [Nedasin (s-form)]
- Classification ([1]; PDZ Domain 1, 2): 2 (A450 nm 1-2)

Molecule: CC(C)C[C@H](NC(=O)CNC(=O)[C@@H](NC(=O)[C@H](CO)NC(=O)[C@H](CC(N)=O)NC(=O)[C@H](Cc1ccccc1)NC(=O)CNC(=O)[C@H](C)NC(=O)[C@H](C)NC(=O)[C@H](Cc1ccccc1)NC(=O)[C@@H](NC(=O)CCCC[C@@H]1SC[C@@H]2NC(=O)N[C@@H]21)[C@@H](C)O)[C@@H](C)O)C(=O)N1CCC[C@H]1C(=O)N[C@@H](Cc1c[nH]cn1)C(=O)N[C@@H](CO)C(=O)N[C@H](C(=O)N[C@H](C(=O)N[C@@H](CCCNC(=N)N)C(=O)N[C@H](C(=O)O)C(C)C)[C@@H](C)O)[C@@H](C)O [Neuroligin] (Biotin-TFAAGFNSTGLPHSTTRV-OH; C-terminus assumed)
- Classification ([2]; PDZ PTPL-1, PDZ Domain 2): 1 (A450 nm 0-1)
- Classification ([2]; PDZ PTPL-1, PDZ Domain 4): 1 (A450 nm 0-1)
- Classification [3, 5]: 2 (A450 nm 1-2)
- Classification ([1]; PDZ Domain 1, 2): 1 (A450 nm 0-1)
- Classification ([1]; PDZ Domain 3): 1 (A450 nm 0-1)

Molecule: CC[C@H](C)[C@H](NC(=O)[C@H](Cc1c[nH]cn1)NC(=O)[C@H](C)NC(=O)[C@H](C)NC(=O)[C@H](CO)NC(=O)[C@@H]1CCCN1C(=O)[C@H](CCCNC(=N)N)NC(=O)[C@H](CC(=O)O)NC(=O)[C@H](CCCCN)NC(=O)[C@@H]1CCCN1C(=O)[C@H](CC(=O)O)NC(=O)[C@H](CCC(=O)O)NC(=O)CCCC[C@@H]1SC[C@@H]2NC(=O)N[C@@H]21)C(=O)N[C@H](C(=O)N[C@@H](CCC(=O)O)C(=O)N[C@@H](C)C(=O)N[C@@H](CC(C)C)C(=O)N[C@@H](CCC(=O)O)C(=O)N[C@H](C(=O)N[C@@H](CC(=O)O)C(=O)N[C@H](C(=O)O)C(C)C)[C@@H](C)O)C(C)C [PDZ-binding kinase (PBK)] (Biotin-EDPKDRPSAAHIVEALETDV-OH; C-terminus assumed)
- Classification ([2]; PDZ PTPL-1, PDZ Domain 2): 4 (A450 nm 3-4)
- Classification [3, 6]: 1 (A450 nm 0-1)
- Classification ([1]; PDZ Domain 1, 2): 1 (A450 nm 0-1)

Molecule: SLKPGTVLPPPPYRHRNTVV (Biotin-SLKPGTVLPPPPYRHRNTVV) [ErbB-4 receptor]
- Classification ([2]; PDZ PTPL-1, PDZ Domain 2): 2 (A450 nm 1-2)
- Classification ([1]; PDZ Domain 1, 2): 1 (A450 nm 0-1)

Molecule: CC[C@H](C)[C@H](NC(=O)[C@H](CO)NC(=O)[C@@H](NC(=O)[C@H](Cc1ccccc1)NC(=O)[C@H](CO)NC(=O)CCCC[C@@H]1SC[C@@H]2NC(=O)N[C@@H]21)[C@@H](C)O)C(=O)N[C@@H](CC(C)C)C(=O)N[C@H](C(=O)N[C@@H](CS)C(=O)N[C@@H](Cc1c[nH]cn1)C(=O)N[C@@H](CCC(N)=O)C(=O)N[C@@H](CCCNC(=N)N)C(=O)N[C@@H](CCCNC(=N)N)C(=O)N[C@H](C(=O)N[C@@H](CCC(N)=O)C(=O)N[C@@H](CCCNC(=N)N)C(=O)N[C@@H](CCCCN)C(=O)N[C@@H](CCC(=O)O)C(=O)N[C@H](C(=O)N[C@H](C(=O)N[C@@H](C)C(=O)O)C(C)C)[C@@H](C)O)[C@@H](C)O)[C@@H](C)O [GluR5-2 (rat)]
- Classification ([4]; PDZ MUPP-1, PDZ Domain 10): 2 (A450 nm 1-2)
- Classification ([4]; PDZ MUPP-1, PDZ Domain 11): 1 (A450 nm 0-1)
- Classification [3, 5]: 1 (A450 nm 0-1)
- Classification ([1]; PDZ Domain 1, 2): 5 (A450 nm of 4 more than 2× repeated)
- Classification ([1]; PDZ Domain 2): 1 (A450 nm 0-1)
- Classification ([1]; PDZ Domain 3): 2 (A450 nm 1-2)

Molecule: CC[C@H](C)[C@H](NC(=O)[C@H](CCC(=O)O)NC(=O)[C@H](CO)NC(=O)[C@H](CCC(=O)O)NC(=O)[C@H](CCCNC(=N)N)NC(=O)[C@H](CCCNC(=N)N)NC(=O)[C@H](CC(C)C)NC(=O)[C@@H]1CCCN1C(=O)[C@H](CCCNC(=N)N)NC(=O)[C@@H]1CCCN1C(=O)[C@H](CCC(=O)O)NC(=O)[C@H](CC(C)C)NC(=O)[C@@H]1CCCN1C(=O)[C@@H](NC(=O)[C@H](CO)NC(=O)[C@H](C)NC(=O)[C@H](CCC(N)=O)NC(=O)[C@H](CC(N)=O)NC(=O)[C@H](Cc1c[nH]cn1)NC(=O)[C@H](CC(C)C)NC(=O)CCCC[C@@H]1SC[C@@H]2NC(=O)N[C@@H]21)C(C)C)C(=O)O [Kir2.1 (inwardly rect. K+ channel)] (Biotin-LHNQASVPLEPRPLRRESEI-OH; C-terminus assumed)
- Classification [3, 5]: 1 (A450 nm 0-1)
- Classification ([1]; PDZ Domain 1, 2): 1 (A450 nm 0-1)

Molecule: CC[C@H](C)[C@H](NC(=O)[C@H](CCC(N)=O)NC(=O)[C@@H](NC(=O)[C@H](Cc1c[nH]cn1)NC(=O)[C@H](CCC(N)=O)NC(=O)[C@H](CC(=O)O)NC(=O)[C@H](CCC(=O)O)NC(=O)[C@H](CC(=O)O)NC(=O)[C@H](Cc1ccccc1)NC(=O)[C@@H]1CCCN1C(=O)[C@H](CCC(=O)O)NC(=O)[C@H](CC(N)=O)NC(=O)[C@H](CCC(=O)O)NC(=O)[C@@H]1CCCN1C(=O)[C@H](CC(=O)O)NC(=O)[C@H](CO)NC(=O)[C@H](CC(=O)O)NC(=O)CCCC[C@@H]1SC[C@@H]2NC(=O)N[C@@H]21)[C@@H](C)O)C(=O)N[C@H](C(=O)N[C@@H](CCCCN)C(=O)N[C@H](C(=O)O)C(C)C)[C@@H](C)O [PTEN]
- Classification ([2]; PDZ PTPL-1, PDZ Domain 2): 4 (A450 nm 3-4)
- Classification ([2]; PDZ PTPL-1, PDZ Domain 4): 1 (A450 nm 0-1)
- Classification ([4]; PDZ MUPP-1, PDZ Domain 13): 5 (A450 nm of 4 more than 2× repeated)
- Classification [3, 6]: 2 (A450 nm 1-2)

Molecule: APC—adenomatous polyposis coli protein (ESSGTQSPKRHSGSYLVTSV)
- Classification ([4]; PDZ MUPP-1, PDZ Domain 10): 1 (A450 nm 0-1)
- Classification ([1]; PDZ Domain 1, 2): 4 (A450 nm 3-4)

Molecule: GGGGGSGGGGGSGIESVKI [GLUR2 (glutamate receptor 2-modified)]
- Classification ([1]; PDZ Domain 1, 2): 2 (A450 nm 1-2)

Molecule: ISGTPTSTMVHGMTSSSSVV (Biotin-ISGTPTSTMVHGMTSSSSVV) [Clasp-2]
- Classification ([2]; PDZ PTPL-1, PDZ Domain 2): 1 (A450 nm 0-1)
- Classification ([4]; PDZ MUPP-1, PDZ Domain 10): 1 (A450 nm 0-1)
- Classification ([4]; PDZ MUPP-1, PDZ Domain 13): 1 (A450 nm 0-1)
- Classification ([1]; PDZ Domain 2): 1 (A450 nm 0-1)

Molecule: CC[C@H](C)[C@H](NC(=O)[C@H](CCCCN)NC(=O)[C@@H](NC(=O)[C@H](CO)NC(=O)[C@@H]1CCCN1C(=O)[C@H](Cc1ccccc1)NC(=O)[C@@H](NC(=O)[C@@H](NC(=O)[C@H](CCCNC(=N)N)NC(=O)[C@H](CCC(=O)O)NC(=O)[C@H](CC(C)C)NC(=O)[C@H](CC(C)C)NC(=O)[C@H](CC(C)C)NC(=O)[C@@H](NC(=O)CNC(=O)[C@@H](NC(=O)CCCC[C@@H]1SC[C@@H]2NC(=O)N[C@@H]21)C(C)C)[C@@H](C)O)C(C)C)[C@@H](C)CC)C(C)C)C(=O)N[C@@H](C)C(=O)N[C@H](C(=O)N[C@@H](CC(C)C)C(=O)N[C@H](C(=O)O)C(C)C)[C@@H](C)O [Adenovirus E4 Type9]
- Classification ([2]; PDZ PTPL-1, PDZ Domain 2, Protein Optimal Conc 5): 3 (A450 nm 2-3)
- Classification ([2]; PDZ PTPL-1, PDZ Domain 4, PL peptide 10 uM): 4 (A450 nm 3-4)
- Classification ([4]; PDZ MUPP-1, PDZ Domain 10, PL peptide 10 uM): 1 (A450 nm 0-1)
- Classification ([4]; PDZ MUPP-1, PDZ Domain 11, Protein Optimal Conc 5): 5 (A450 nm of 4 more than 2× repeated)
- Classification ([3]; PDZ atrophin-1 interacting Protein, PDZ Domain 1, Protein Optimal Conc 0.5): 5 (A450 nm of 4 more than 2× repeated)
- Classification ([3]; PDZ atrophin-1 interacting Protein, PDZ Domain 3, Protein Optimal Conc 5): 4 (A450 nm 3-4)
- Classification ([1]; PDZ Domain 1, 2, PL peptide 10 uM): 5 (A450 nm of 4 more than 2× repeated)
- Classification ([1]; PDZ Domain 1, PL peptide 10 uM): 1 (A450 nm 0-1)
- Classification ([1]; PDZ Domain 2, Protein Optimal Conc 5): 5 (A450 nm of 4 more than 2× repeated)
